Results as given in patent publication US10851096B2, “Aryl and heteroaryl amides for use as anti-proliferative, anti-thrombotic, and anti-viral agents” (Rutgers, The State University of New Jersey, priority 2016, dated 2020).

What was measured:
Format in all cases: in vivo
[1] = tested on: H1299 lung cancer xenograft; experiment: Mouse xenograft study, human H1299 lung cancer; conditions: for growth of tumor (tumor volume): 100 mg/kg IP
Protocol: (§1) 500,000 H1299 cells in 100 μl of PBS were injected subcutaneously into the right flank of 4-6 week NOD/SCIDg mice. Once tumors were palpable, the mice were randomized into 3 groups, each group had 6 mice: control mice were treated with vehicle (DMSO) intraperitoneally (IP) and the treatment groups with compound 1I (day 1, day 2, day 3 and day 4) or with compound 1Q (day 1, day 2, day 3, day 4, day 7 and day 8) at a dose of 100 mg/kg IP. Similar studies were conducted on compound 1Q dosed at 300 mg/kg in mice. Tumor size and body weights were measured three times a week and the tumor volume calculated.
Finally, based on the promising in vitro and cell culture experiments showing anti-Axl activity of certain compounds, the in vivo efficacies of compound 1I and compound 1Q using a murine SCID/human H1299 lung cancer xenograft model was investigated (FIG. 7A-E). As indicated, SCID mice were subcutaneously injected with 250,000 tumor cells in the hind flanks with human H1299 cells until palpable tumors were present. Subsequently, mice were injected every two days with vehicle, compound 1I or compound 1Q at a concentration of 100 mg/kg for up to 2 weeks. […] Taken together, these studies support the further development of TAM Ig1 inhibitors as anti-cancer therapeutics (FIGS. 7A-E).

[2] = Toxicity and body weight in xenograft mice; conditions: for body weights: 100 mg/kg, versus vehicle; for toxicity in cell culture or in vivo: up to highest dose tested 300 mg/kg IP
Protocol: as §1

[3] = Venous thromboembolism (VTE) mouse model; conditions: 200 mg/kg qd IP for three days
[4] = Cancer associated VTE mouse model; conditions: 200 mg/kg qd IP for three days

| SMILES | growth of tumor (tumor volume) [1] | body weights [2] | toxicity in cell culture or in vivo [2] | tumor growth (volume) ([1]; 300 mg/kg IP) | reduction in thrombus size [3] | reduction in thrombus size [4] |
| --- | --- | --- | --- | --- | --- | --- |
| Cc1noc(C)c1CSc1ccccc1C(=O)N1CCN(c2cccc(C(F)(F)F)c2)CC1 [1I] | significantly suppressed growth of tumor | not significantly different | Neither compound 1I nor compound 1Q showed notable toxicity | – | – | – |
| Cc1cc(CSc2ccccc2C(=O)NCCNc2ccc(C(F)(F)F)cc2[N+](=O)[O-])on1 [1Q] | significantly suppressed growth of tumor | not significantly different | Neither compound 1I nor compound 1Q showed notable toxicity | suppress tumor growth | approximately 37.3% | 45% |
